{
  "source": "patent US12312599B2",
  "about": "“Methods, compositions, and kits for producing beige adipocytes and treating metabolic disorders” (MaineHealth, priority 2018, dated 2025)",
  "test_system": "Primary human subcutaneous white adipocytes",
  "assay": "UCP1 qPCR in primary human subcutaneous white adipocytes",
  "assay_type": "cell-based",
  "conditions": "treated with SB",
  "description": "All primary cell lines isolated from WAT were generated from outgrowth of the stromal vascular fraction and purchased from commercial vendors. All cell lines were validated to be at least 95% positive for adipogenic precursors as determined by flow cytometry for PDGFRα. Human white preadipocytes (HWP-c) cells, purchased from PromoCell (C-12730), were isolated from subcutaneous adipose tissue of a person with a BMI of 28. Normal human preadipocytes, purchased from Lonza (PT-5020), were isolated from subcutaneous adipose tissue of a person with a BMI of 21. Type 2 diabetic human preadipocytes, purchased from Lonza (PT-5022), were isolated from subcutaneous adipose tissue of a person with a BMI of 42.1. Type 2 diabetic human preadipocytes, purchased from Zenbio (OPD-F-3), were isolated from omental adipose tissue of a person with a BMI of 38.6. Type 2 diabetic human preadipocytes, purchased from Zenbio (SPD-F-3), were isolated from subcutaneous adipose tissue of a person with a BMI of 53.5. Cryopreserved cells were thawed and seeded in a 100×20 mm TC dish and treated as passage 0. Primary adipogenic precursors were expanded in DMEM containing 10% fetal bovine serum. Medium was changed daily and cells were cultured at 37° C. in a 5% CO2 incubator. Upon 80% confluence, cells are split and passaged at a ratio of 1:6 (Passage 1). […]",
  "data": [
    {"smiles": "NC(=O)c1ccc(-c2nc(-c3ccc4c(c3)OCO4)c(-c3ccccn3)[nH]2)cc1", "note": "[SB, SB431542]", "values": [
      {"measurement": "UCP1 expression", "result": "enhanced expression"}
    ]}
  ]
}
